{
  "source": "PubChem BioAssay (NCI)",
  "test_in_all_cases": "DTP human tumour cell line panel, 48 h",
  "key": {"OVCAR-4 ovarian": {"system": "OVCAR-4 ovarian"}, "OVCAR-3 ovarian": {"system": "OVCAR-3 ovarian"}, "COLO 205 colon": {"system": "COLO 205 colon"}, "HCC-2998 colon": {"system": "HCC-2998 colon"}, "OVCAR-5 ovarian": {"system": "OVCAR-5 ovarian"}, "SNB-75 CNS": {"system": "SNB-75 CNS"}, "HOP-92 NSCLC": {"system": "HOP-92 NSCLC"}, "SN12C renal": {"system": "SN12C renal"}, "SNB-19 CNS": {"system": "SNB-19 CNS"}, "U251 CNS": {"system": "U251 CNS"}, "UACC-257 melanoma": {"system": "UACC-257 melanoma"}, "SF-295 CNS": {"system": "SF-295 CNS"}, "T-47D breast": {"system": "T-47D breast"}, "SF-268 CNS": {"system": "SF-268 CNS"}, "HL-60(TB) leukemia": {"system": "HL-60(TB) leukemia"}, "CAKI-1 renal": {"system": "CAKI-1 renal"}, "NCI-H226 lung": {"system": "NCI-H226 lung"}, "HT29 colon": {"system": "HT29 colon"}, "MCF7 breast": {"system": "MCF7 breast"}, "KM12 colon": {"system": "KM12 colon"}, "786-0 renal": {"system": "786-0 renal"}, "HCT-116 colon": {"system": "HCT-116 colon"}, "PC-3 prostate": {"system": "PC-3 prostate"}, "SK-OV-3 ovarian": {"system": "SK-OV-3 ovarian"}, "HCT-15 colon": {"system": "HCT-15 colon"}, "SK-MEL-2 melanoma": {"system": "SK-MEL-2 melanoma"}, "RXF 393 renal": {"system": "RXF 393 renal"}, "BT-549 breast": {"system": "BT-549 breast"}},
  "note": "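Five concentrations, 48 hours, 96-well plates. GI50 is the concentration that inhibits growth by half. The concentration for full growth arrest is given as TGI.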",
  "data": [
    {"smiles": "CC/C(=C(/c1ccc(O)cc1)c1ccc(OCCNC)cc1)c1ccccc1", "values": [
      {"measurement": "GI50", "setting": "OVCAR-4 ovarian", "value": 3.32, "unit": "µM"},
      {"measurement": "TGI", "setting": "OVCAR-4 ovarian", "value": 15.4, "unit": "µM"},
      {"measurement": "GI50", "setting": "OVCAR-3 ovarian", "value": 2.1, "unit": "µM"},
      {"measurement": "TGI", "setting": "OVCAR-3 ovarian", "value": 4.52, "unit": "µM"},
      {"measurement": "GI50", "setting": "COLO 205 colon", "value": 1.97, "unit": "µM"},
      {"measurement": "TGI", "setting": "COLO 205 colon", "value": 3.59, "unit": "µM"},
      {"measurement": "GI50", "setting": "HCC-2998 colon", "value": 1.9, "unit": "µM"},
      {"measurement": "TGI", "setting": "HCC-2998 colon", "value": 3.46, "unit": "µM"},
      {"measurement": "GI50", "setting": "OVCAR-5 ovarian", "value": 2.37, "unit": "µM"},
      {"measurement": "TGI", "setting": "OVCAR-5 ovarian", "value": 6.25, "unit": "µM"},
      {"measurement": "GI50", "setting": "SNB-75 CNS", "value": 1.43, "unit": "µM"},
      {"measurement": "TGI", "setting": "SNB-75 CNS", "value": 5.24, "unit": "µM"},
      {"measurement": "GI50", "setting": "HOP-92 NSCLC", "value": 1.18, "unit": "µM"},
      {"measurement": "TGI", "setting": "HOP-92 NSCLC", "value": 3.72, "unit": "µM"},
      {"measurement": "GI50", "setting": "SN12C renal", "value": 2.19, "unit": "µM"},
      {"measurement": "TGI", "setting": "SN12C renal", "value": 5.78, "unit": "µM"},
      {"measurement": "GI50", "setting": "SNB-19 CNS", "value": 3.12, "unit": "µM"},
      {"measurement": "TGI", "setting": "SNB-19 CNS", "value": 11.9, "unit": "µM"},
      {"measurement": "GI50", "setting": "U251 CNS", "value": 1.54, "unit": "µM"},
      {"measurement": "TGI", "setting": "U251 CNS", "value": 2.93, "unit": "µM"},
      {"measurement": "GI50", "setting": "UACC-257 melanoma", "value": 1.64, "unit": "µM"},
      {"measurement": "TGI", "setting": "UACC-257 melanoma", "value": 3.15, "unit": "µM"},
      {"measurement": "GI50", "setting": "SF-295 CNS", "value": 1.95, "unit": "µM"},
      {"measurement": "TGI", "setting": "SF-295 CNS", "value": 3.95, "unit": "µM"},
      {"measurement": "GI50", "setting": "T-47D breast", "value": 1.34, "unit": "µM"},
      {"measurement": "TGI", "setting": "T-47D breast", "value": 4.68, "unit": "µM"},
      {"measurement": "GI50", "setting": "SF-268 CNS", "value": 2.48, "unit": "µM"},
      {"measurement": "TGI", "setting": "SF-268 CNS", "value": 7.27, "unit": "µM"},
      {"measurement": "GI50", "setting": "HL-60(TB) leukemia", "value": 2.03, "unit": "µM"},
      {"measurement": "TGI", "setting": "HL-60(TB) leukemia", "value": 4.55, "unit": "µM"},
      {"measurement": "GI50", "setting": "CAKI-1 renal", "value": 2.75, "unit": "µM"},
      {"measurement": "TGI", "setting": "CAKI-1 renal", "value": 8.58, "unit": "µM"},
      {"measurement": "GI50", "setting": "NCI-H226 lung", "value": 5.03, "unit": "µM"},
      {"measurement": "TGI", "setting": "NCI-H226 lung", "value": 20.3, "unit": "µM"},
      {"measurement": "GI50", "setting": "HT29 colon", "value": 2.02, "unit": "µM"},
      {"measurement": "TGI", "setting": "HT29 colon", "value": 3.83, "unit": "µM"},
      {"measurement": "GI50", "setting": "MCF7 breast", "value": 0.0324, "unit": "µM"},
      {"measurement": "TGI", "setting": "MCF7 breast", "value": 2.95, "unit": "µM"},
      {"measurement": "GI50", "setting": "KM12 colon", "value": 1.87, "unit": "µM"},
      {"measurement": "TGI", "setting": "KM12 colon", "value": 3.83, "unit": "µM"},
      {"measurement": "GI50", "setting": "786-0 renal", "value": 1.64, "unit": "µM"},
      {"measurement": "TGI", "setting": "786-0 renal", "value": 3.27, "unit": "µM"},
      {"measurement": "GI50", "setting": "HCT-116 colon", "value": 1.68, "unit": "µM"},
      {"measurement": "TGI", "setting": "HCT-116 colon", "value": 3.12, "unit": "µM"},
      {"measurement": "GI50", "setting": "PC-3 prostate", "value": 1.95, "unit": "µM"},
      {"measurement": "TGI", "setting": "PC-3 prostate", "value": 5.45, "unit": "µM"},
      {"measurement": "GI50", "setting": "SK-OV-3 ovarian", "value": 3.45, "unit": "µM"},
      {"measurement": "TGI", "setting": "SK-OV-3 ovarian", "value": 12, "unit": "µM"},
      {"measurement": "GI50", "setting": "HCT-15 colon", "value": 1.87, "unit": "µM"},
      {"measurement": "TGI", "setting": "HCT-15 colon", "value": 4.07, "unit": "µM"},
      {"measurement": "GI50", "setting": "SK-MEL-2 melanoma", "value": 2.08, "unit": "µM"},
      {"measurement": "TGI", "setting": "SK-MEL-2 melanoma", "value": 3.77, "unit": "µM"},
      {"measurement": "GI50", "setting": "RXF 393 renal", "value": 1.68, "unit": "µM"},
      {"measurement": "TGI", "setting": "RXF 393 renal", "value": 3.69, "unit": "µM"},
      {"measurement": "GI50", "setting": "BT-549 breast", "value": 3.37, "unit": "µM"},
      {"measurement": "TGI", "setting": "BT-549 breast", "value": 13.9, "unit": "µM"}
    ]}
  ]
}
